Consider eleven compounds from ChEMBL document CHEMBL1201862, “PubChem BioAssay data set” (2004).

Assay in all cases: DTP human tumour cell line panel, 48 h
Assay [1] has as its system 786-0.
The subject of assay [2] is A498.
The subject of assay [3] is CAKI-1.
Assay [4] concerns CCRF-CEM.
Assay [5] deals with DU-145.
The test system of assay [6] is HCT-116.
Assay [7] relates to HCT-15.
The subject of assay [8] is HOP-62.
Assay [9] has as its system HOP-92.
Assay [10] has as its system HT-29.
In assay [11] the test system is IGROV-1.
Assay [12] has as its system LOX IMVI.
In assay [13] the test system is MDA-MB-435.
For assay [14], the system named is OVCAR-3.
For assay [15], the system named is OVCAR-8.
The test system of assay [16] is SF-295.
Assay [17] has as its system SN12C.
The subject of assay [18] is SR.
For assay [19], the system named is SW-620.
Assay [20] concerns SK-MEL-2.

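Compound exposure: 48 hours, 5 concentrations, 96-well plates. At the GI50, growth is halved.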 The source made the active and inactive calls. Rule as the data show it: active = GI50 up to about 1.1 µM and inactive = higher.

On to `COc1cccc(/C=C2\S/C(=N/Nc3nc(-c4ccc([N+](=O)[O-])cc4)cs3)NC2=O)c1O`, for which the GI50 in assay [1] was 19.9 µM (inactive); in [2], 23.4 µM (inactive); in assay [3], 25 µM (inactive); in [4], 9.89 µM (inactive); in assay [5], 21.9 µM (inactive); in assay [6], 13.1 µM (inactive). Besides, the GI50 in [7] was 15.6 µM; in [8], 15.3 µM (inactive); in assay [9] it was 10.3 µM (inactive); in assay [10], 21.9 µM (inactive); in assay [11] it was 11.3 µM (inactive); in [12] it was 3.25 µM (inactive). Also, the GI50 in assay [13] was 19.5 µM (inactive); in [14], 15 µM (inactive); in assay [15], 13.6 µM (inactive); in assay [16] it was 16.9 µM (inactive); in assay [17] it was 22.1 µM (inactive); in assay [18], 12 µM (inactive). Moreover, in assay [19], the GI50 was 19.3 µM (inactive).

For the compound `CCOC(=O)CCN1C(=O)c2c(NC(=O)C(=O)O)cccc2S1(=O)=O`, the GI50 in assay [1], in assay [2], in assay [3], in assay [4], in assay [5] and in [6] was > 100 µM (inactive) throughout. Also, the GI50 is more than 100 µM in [7]; > 100 µM (inactive) in assay [8]; > 100 µM (inactive) in [9]; > 100 µM (inactive) in assay [10]; > 100 µM (inactive) in [11]; > 100 µM (inactive) in [12]. Moreover, the GI50 in assay [13], in [15], in assay [16], in [20], in [17] and in [18] was > 100 µM (inactive) each time. Besides, in [19], the GI50 is > 100 µM (inactive).

For `COc1cc2cccc(N)c2cc1OC`, the GI50 in assay [1] is > 100 µM (inactive); in assay [2], > 100 µM (inactive); in assay [3], > 100 µM (inactive); in assay [4] it was > 80.5 µM (inactive); in assay [5] it was > 100 µM (inactive); in [6] it was > 100 µM (inactive). For the same compound, the GI50 in [7] was more than 100 µM; in assay [8], > 100 µM (inactive); in assay [10] it was > 100 µM (inactive); in [11], > 100 µM (inactive); in assay [12] it was > 100 µM (inactive); in [13], > 100 µM (inactive). Also, the GI50 in [14] is > 100 µM (inactive); in assay [15], > 100 µM (inactive); in assay [16], > 100 µM (inactive); in assay [20], > 100 µM (inactive); in [17], > 100 µM (inactive); in assay [18], > 45.3 µM (inactive). In addition, the GI50 in [19] is > 100 µM (inactive).

Take `CSC1=C(C#N)C(=S)N=C(N)C1C(=O)Nc1ccc(C)cc1` (centres undefined): the GI50 in assay [1] is > 100 µM (inactive); in assay [2] it was 68.9 µM (inactive); in assay [3] it was > 100 µM (inactive); in assay [4], > 100 µM (inactive); in assay [5], > 100 µM (inactive); in assay [6], 81.5 µM (inactive). Moreover, the GI50 in [7] is more than 100 µM; in assay [10] it was > 100 µM (inactive); in [11], > 100 µM (inactive); in assay [12], > 100 µM (inactive); in assay [13], > 100 µM (inactive); in assay [14], > 100 µM (inactive). Further, the GI50 in assay [15], in [20], in [17], in [18] and in assay [19] was > 100 µM (inactive) in each case.

Take `Cc1nc(Cl)c(C)c(Cl)n1`: the GI50 is > 100 µM (inactive) in assay [1]; > 100 µM (inactive) in assay [2]; 0.0216 µM (active) in assay [3]; 18.7 µM (inactive) in assay [4]; > 100 µM (inactive) in [5]; > 100 µM (inactive) in assay [6]. The GI50 is more than 63.4 µM in assay [7]; > 77.4 µM (inactive) in assay [8]; > 44.7 µM (inactive) in assay [10]; 15.9 µM (inactive) in assay [11]; 33 µM (inactive) in assay [12]; 33.3 µM (inactive) in [13]. The GI50 in [14] was > 100 µM (inactive); in assay [15], > 100 µM (inactive); in assay [16], > 100 µM (inactive); in assay [20], > 100 µM (inactive); in assay [17] it was > 100 µM (inactive); in assay [18], 0.254 µM (active). Moreover, in assay [19], the GI50 was > 55.8 µM (inactive).

Turning to `CC(NC(=O)OC(C)(C)C)C(=O)NC1CCCC1` (centres undefined), the GI50 in assay [1], in [2], in assay [3], in assay [4], in assay [5] and in [6] was > 100 µM (inactive) each time. Also, the GI50 in [9], in assay [10], in [11], in [12], in assay [13] and in [14] was > 100 µM (inactive) each time. Moreover, the GI50 in assay [15], in assay [16], in assay [17], in assay [18] and in assay [19] was > 100 µM (inactive) each time.

`CCOC(=O)CC(N1CC1)N1CC1`: the GI50 in assay [1], in [2], in assay [3], in assay [4], in assay [5] and in assay [6] was > 10 µM (inactive) each time. Also, the GI50 in [7] was more than 10 µM; in assay [8], > 10 µM (inactive); in assay [10], > 10 µM (inactive); in [11] it was > 10 µM (inactive); in assay [12], > 10 µM (inactive); in assay [13] it was > 10 µM (inactive). Moreover, the GI50 in assay [14], in [16], in assay [20], in assay [17], in assay [18] and in [19] was > 10 µM (inactive) each time.

Take `O=C(CCc1ccccc1)n1cccc1CO`: the GI50 in assay [1], in [2], in assay [3], in assay [4], in assay [5] and in [6] was > 100 µM (inactive) each time. Also, the GI50 in [7] was more than 100 µM; in assay [8] it was > 100 µM (inactive); in [10], > 100 µM (inactive); in assay [11], > 100 µM (inactive); in assay [12] it was > 100 µM (inactive); in assay [13], > 100 µM (inactive). The GI50 in [14], in [15], in assay [16], in assay [20], in [17] and in assay [18] was > 100 µM (inactive) in each case. The GI50 in [19] was > 100 µM (inactive).

Regarding `CN(C)Cc1cc(/N=N/c2cccc(Cl)c2)ccc1O`, the GI50 in [1] is 13.8 µM (inactive); in [2] it was 10.9 µM (inactive); in assay [3], 21.2 µM (inactive); in assay [4], 15.8 µM (inactive); in assay [5] it was 6.9 µM (inactive); in [6], 15.2 µM (inactive). The GI50 in assay [7] was 4.9 µM; in assay [8], 10.2 µM (inactive); in assay [9], 6.78 µM (inactive); in assay [10] it was 17 µM (inactive); in assay [11], 10.9 µM (inactive); in assay [12], 4.16 µM (inactive). In addition, the GI50 in assay [13] was 4.22 µM (inactive); in [14], 13.6 µM (inactive); in [15], 14.9 µM (inactive); in [16] it was 14.7 µM (inactive); in assay [17], 28.6 µM (inactive); in assay [18], 20.1 µM (inactive). Further, the GI50 in assay [19] is 10.7 µM (inactive).

For `c1ccc([P+](c2ccccc2)(c2ccccc2)c2ccc([P+](c3ccccc3)(c3ccccc3)c3ccccc3)c3ccccc23)cc1`, the GI50 was > 100 µM (inactive) in assay [1]; > 100 µM (inactive) in assay [2]; > 100 µM (inactive) in assay [3]; 64.4 µM (inactive) in assay [4]; 67.3 µM (inactive) in assay [5]; 40 µM (inactive) in [6]. Also, the concentration for 50% growth inhibition (GI50) was more than 100 µM in [7]; > 100 µM (inactive) in [8]; 79.4 µM (inactive) in [10]; 94.8 µM (inactive) in assay [11]; 30.5 µM (inactive) in [12]; 84.3 µM (inactive) in assay [13]. Moreover, the GI50 in assay [14] was 46.3 µM (inactive); in assay [15] it was 88.1 µM (inactive); in assay [16], > 100 µM (inactive); in [20], > 100 µM (inactive); in assay [17], > 100 µM (inactive); in [18] it was < 0.01 µM (active). Also, in [19], the GI50 is > 100 µM (inactive).

As for `Cn1cnc2c(NCc3ccccc3)nc(NCCO)nc21` [OLOMOUCINE], the GI50 is 60.7 µM (inactive) in assay [1]; 103 µM (inactive) in assay [2]; 33.7 µM (inactive) in [3]; 54.6 µM (inactive) in assay [4]; 34.1 µM (inactive) in assay [5]; 34.8 µM (inactive) in assay [6]. Also, the GI50 is 41.3 µM in assay [7]; 29.3 µM (inactive) in [8]; 61.2 µM (inactive) in [9]; 71.4 µM (inactive) in assay [10]; 42.3 µM (inactive) in [11]; 24 µM (inactive) in assay [12]. Further, the GI50 in assay [13] is 78.7 µM (inactive); in assay [15] it was 66.2 µM (inactive); in assay [16] it was 41.1 µM (inactive); in assay [20], 98.9 µM (inactive); in assay [17], 90.2 µM (inactive); in assay [18] it was 29.7 µM (inactive). For the same compound, in [19], the GI50 was 43.5 µM (inactive).

Usually GI50 stands for the concentration at which growth is held to half of that of the control.
